Tests used:
Assay type in all cases: in vivo, C57BL/6 mice
liver TRM cells = assay: LNP-mRNA vaccines, prime and boost; TRM cells in liver and spleen; conditions: i.m. and i.v.
Method: Vaccines were prepared with mRNA encoding OVA encapsulated in LNPs (LNP-mOVA-CI058). Groups of mice (n=5) were vaccinated twice, with an interval of either two weeks, or eight weeks, and then liver and spleen were collected for analysis of T cell responses 28 days after the last dose. (A) Percentages of antigen-specific TRM cells, TEM cells and TCM cells are shown for liver. Black bars: TRM cells; white bars: TEM cells; grey bars: TCM cells. (B) Percentages of antigen-specific TRM cells, TEM cells and TCM cells are shown for spleen. Black bars: TRM cells; white bars: TEM cells; grey bars: TCM cells. (C) Mean number of TRM cells in liver for each treatment group (±SEM); dots represent individual mice. *P<0.05.
Vaccines were prepared with mRNA encoding OVA encapsulated in LNPs (LNP-mOVA-CI536). Groups (n=9-10) of naïve C57BL/6 mice (i.e., no OT-I transfer) were vaccinated once, or twice with an interval of two weeks, with the liver and spleen collected for analysis of T cell responses 28 days after the last dose. (A) Numbers of antigen-specific TRM cells for liver. […] Data were log transformed and analysed by One-way ANOVA with Tukey's post test **P<0.01, ***P<0.001, ****P<0.0001. […]
LNP-mRNA vaccines comprising an ionizable lipid are an established formulation strategy to deliver mRNA vaccines safely and effectively. Therefore, the capacity of LNP-mRNA vaccines containing CI536 and the ionizable lipid DLin-MC3-DMA to stimulate liver TRM was evaluated. […] The memory T cell responses were assessed 28 days after the prime and boost so the impact of the second dose could be assessed. […]
Lymphocytes were stained with monoclonal antibodies for: CD8a (53-6.7), Ly5.1 (A20), CD44 (IM7), CXCR6 (SA051D1), CX3CR1 (SA011F11), from BioLegend (Australian Biosearch, Karrinyup, WA. Australia), and CD62L (MEL-14) and CD69 (H1.2F3), from eBioscience (Jomar Life Research, Scoresby, VIC, Australia). […] Single-color positive control samples were used to adjust compensation and cells were analyzed by flow cytometry on a LSR Fortessa (BD Biosciences), or LSRII SORP using Flowjo software (Tree Star Inc.).

[1] = tested on: tissue-resident memory T cells (TRM cells); assay: LPX-mRNA vaccination of mice i.v.; antigen-specific TRM, TEM and TCM cells in liver and spleen by flow cytometry; conditions: LPX-mOVA vaccines i.v., OT-I cell transfer, 28 days after vaccination
Method: FIG. 1 provides a graphical representation showing that LPX-mRNA vaccines containing CI058 induce high levels of liver TRM cells. Liposomes were prepared with DOTMA and DOPE lipids and complexed with mRNA encoding chicken ovalbumin (OVA) to give vaccine LPX-mOVA. Additional vaccines were prepared by including either the prototypical NKT cell agonist α-GalCer (LPX-mOVA-α-GalCer) or the derivative CI058, which has BODIPY attached via an —S in the 6 position of the galactose (LPX-mOVA-CI058). Recipient C57BL/6 mice were transferred 50,000 naïve OVA-specific TCR-transgenic CD8+ T cells (OT-I cells) to enhance the precursor frequency of antigen-specific T cells to aid detection of vaccine-induced responses. A day later, groups of mice (n=5-6) were vaccinated intravenously (0.08 nmol) with the different vaccines; a naive mouse was left untreated. After 28 days, mice were killed and liver and spleen collected for analysis of induced T cell response by flow cytometry. Antigen-specific cells were identified using fluorescent MHC/peptide tetramers containing the targeted CD8^+ T cell epitope recognised by OT-I cells, and expression of Ly5.1, a congenic marker expressed by the OT-I mouse strain and not recipient C57BL/6 mice. The antigen-specific cells were further characterised as resident-memory T cells (TRM cells; CD8^+ Ly5.1^+ […] CD62L^low cells), effector memory T cells (TEM cells; CD8^+ Ly5.1^+ CD44^+ CD69^− CD62L^low cells) or central memory cells (TCM cells; CD8^+ Ly5.1^+ CD44^+ CD69^− CD62Lhigh cells). (A) Percentages of TRM, TEM and TCM OT-I cells in each treatment group in liver. Mean±SEM for each T cell subset are shown; statistical analysis relates only to pairwise comparisons of the percentage of TRM cells between the treatment groups. Black bars: TRM cells; white bars: TEM cells; grey bars: TCM cells. *P<0.05, **P<0.01, ***P<0.001, ****P<0.0001. One-way ANOVA. (B) Percentages of RM, TEM and TCM OT-I cells in each treatment group in spleen. (C) Mean number of TRM cells in liver for each treatment group (±SEM); dots represent individual mice. Black bars: TRM cells; white bars: TEM cells; grey bars: TCM cells. *P<0.05, **P<0.01, ***P<0.001, ****P<0.0001. One-way ANOVA.
Dose response of LPX-mOVA-α-GalCer versus LPX-mOVA-CI058 vaccines. Analysis was in C57BL/6 mice, without transfer of OT-I cells, so endogenous T cell responses were monitored on a normal T cell repertoire. Groups of 5 mice were used, and vaccines were administered intravenously. After 28 days, mice were killed and liver tissue collected for analysis of induced T cell response by flow cytometry. Antigen-specific cells were identified using fluorescent MHC/peptide tetramers, and further characterised as resident-memory T cells (TRM CD8^+ CD44^+ CD69^+ CXCR6^+ CD49a^+ CD62L^low cells), effector memory T cells (TEM CD8^+ CD44^+ CD69^− KLRG1^+ CXCR3^+ CD62L^low cells) or central memory cells (TCM CD8^+ CD44^+ CD69^− CD62L^high cells). At the same timer, NKT cells in the liver were also evaluated using fluorescent CD1d/α-GalCer tetramers. These were characterised for expression of different markers of activation, including PD-1 (only the latter is shown here). White circles: LPX-mOVA-α-GalCer; black circles: LPX-mOVA-CI058. (A) Graph showing mean number of TRM cells in liver for each treatment group (±SEM) overdose range. ****P<0.0001. (B) Graph showing mean level of expression of the “invariant” NKT cell-associated TCR for each treatment group (±SEM), defined as level of binding of fluorescent CD1d/α-GalCer tetramers and expressed as mean fluorescence index. ****P<0.0001 (C) Graph showing mean level of expression of PD-1 on NKT cells for each treatment group (±SEM). **P<0.01
To examine whether a prodrug mechanism is involved in enhanced TRM cell induction, LPX-mOVA-CI058 vaccines were compared to vaccines containing different NKT cell agonist prodrugs. […]

[2] = tested on: tissue-resident memory T cells (TRM cells); assay: as above; conditions: agonist in LPX-mOVA vaccine, OT-I transfer, liver 30 days later; for proportion of liver TRM among all vaccine-induced antigen-specific T cells (TRM cell-inducing capability): relative to α-GalCer vaccine

| SMILES | proportion of liver TRM among all vaccine-induced antigen-specific T cells (TRM cell-inducing capability) [2] | overall TRM cell accumulation in the liver [2] | also measured |
| --- | --- | --- | --- |
| CCCCCCCCCCCCCCCCCCCCCCCCCC(=O)N[C@@H](CO[C@H]1O[C@H](CSCC(N)=O)[C@H](O)[C@H](O)[C@H]1O)[C@H](O)[C@H](O)CCCCCCCCCCCCCC [CI536, (2S,3S,4R)-1-(6-Deoxy-6-((2-amino-2-oxoethyl)thio)-α-D-galactopyranosyloxy)-2-hexacosanoylamino-3,4-octadecandiol] |  |  | proportion of TEM in the spleen (liver TRM cells; LNP with DLin-MC3-DMA, 28 days): higher proportion of TEM; proportion of TRM in liver compared to spleen (liver TRM cells; LNP with DLin-MC3-DMA, prime or prime-boost, no T cell transfer, 28 days): increased proportion of liver TRM in the liver as compared to the spleen; number of liver TRM (liver TRM cells; boosted groups, two-week interval, vs PBS control): highest number of liver TRM compared to PBS control group |
| CCCCCCCCCCCCCCCCCCCCCCCCCC(=O)N[C@@H](CO[C@H]1O[C@H](CO)[C@H](O)[C@H](O)[C@H]1O)[C@H](O)[C@H](O)CCCCCCCCCCCCCC [α-GalCer, reference compound] |  |  | proportion of TRM cells among antigen-specific T cells in liver and spleen [1]: low proportions of TRM cells in liver and spleen |
| CCCCCCCCCCCCCCCCCCCCCCCCCC(=O)N[C@@H](CO[C@H]1O[C@H](CS)[C@H](O)[C@H](O)[C@H]1O)[C@H](O)[C@H](O)CCCCCCCCCCCCCC [CN237] | significantly enhanced relative to vaccines with α-GalCer |  |  |
| CCCCCCCCCCCCCCCCCCCCCCCCCC(=O)N[C@@H](CO[C@H]1OC(CN)[C@H](O)C(O)C1O)[C@H](O)[C@H](O)CCCCCCCCCCCCCC (stereo partly drawn) [CN168] | significantly enhanced relative to vaccines with α-GalCer |  |  |
| CCCCCCCCCCCCCCCCCCCCCCCCCC(=O)N[C@@H](CO[C@H]1OC(CSCCCCCNC(=O)CCC2=C3C(C)=CC(C)=[N+]3[B-](F)(F)n3c(C)cc(C)c32)[C@H](O)C(O)[C@@H]1O)[C@H](O)[C@H](O)CCCCCCCCCCCCCC (stereo partly drawn) [CI534] | significantly enhanced relative to vaccines with α-GalCer | All but two of the 6'S-substituted agonists (CI534, CI540) |  |
| CCCCCCCCCCCCCCCCCCCCCCCCCC(=O)N[C@@H](CO[C@H]1OC(CSCCCCCNC(=O)OCc2c3ccccc3cc3ccccc23)[C@H](O)C(O)[C@@H]1O)[C@H](O)[C@H](O)CCCCCCCCCCCCCC (stereo partly drawn) [CI540] |  | All but two of the 6'S-substituted agonists (CI534, CI540) |  |

Reference: patent publication US20250049904A1, “IMMUNOSTIMULATORY COMPOSITIONS” (VICTORIA LINK LIMITED, priority 2021, published 2025)
